Reference: US8119568B2, “3-amino-1,2-benzisothiazole compounds for combating animal pest II” (BASF SE, priority 2007, dated 2012)

Legend:
[1] = test system: Cowpea Aphid (aphis craccivora); assay: Cowpea aphid (aphis craccivora) test, colonized potted cowpea plants sprayed; type: in vivo; conditions: assessed after 24, 72, and 120 hours, read-out: mortality in comparison with untreated controls (cowpea aphid)
Protocol: (§1) In the following tests, the formulated solutions of the active compounds were diluted to an active ingredient concentration of 300 ppm and the diluted solutions were applied in the below mentioned tests.
The active compound is dissolved at the desired concentration in a mixture of 1:1 (vol:vol) distilled water:acetone. The test solution is prepared at the day of use.
Potted cowpea plants colonized with approximately 100-150 aphids of various stages were sprayed after the pest population has been recorded. Population reduction was assessed after 24, 72, and 120 hours.

[2] = test system: Green Peach Aphid (Myzus persicae); assay: Green peach aphid (Myzus persicae) test, infested bell pepper leaves dipped in test solution; type: in vivo; conditions: 120 h, determined after 5 days, read-out: mortality of green peach aphid in comparison with untreated controls
Protocol: (§2) If not otherwise described, the active compounds were formulated in a mixture of 50 vol.-% acetone:50 vol.-% water. A nonionic surfactant (Kinetic®) was included in the solution at a volume of 0.01% v/v.
as §1
Bell pepper plants at the first true-leaf stage were infested prior to treatment by placing heavily infested leaves from the main aphid colony on top of the treatment plants. The aphids were allowed to transfer overnight to accomplish an infestation of 30-40 aphids per plant and the host leaves were removed. The infested leaves of the test plants were then dipped and agitated in the test solution for 3 seconds and allowed to dry in a fume hood. Test plants were maintained under fluorescent lighting in a 24-hr photoperiod at 25° C. and 20-40% relative humidity. Mortality on the treated plants, relative to mortality on untreated check plants, was determined after 5 days.

[3] = test system: Cotton Aphid (Aphis gossypii); assay: Cotton aphid (Aphis gossypii) test, infested cotton cotyledons dipped in test solution; type: in vivo; conditions: 120 h, determined after 5 days, read-out: mortality of cotton aphid (Aphis gossypii, mixed life stages) in comparison with untreated controls
Protocol: as §2, §1
Cotton plants at the cotyledon stage were infested prior to treatment by placing a heavily infested leaf from the main aphid colony on top of each cotyledon. The aphids were allowed to transfer overnight and the host leaf was removed. The infested cotyledons were then dipped and agitated in the test solution for 3 seconds and allowed to dry in a fume hood. Test plants were maintained under fluorescent lighting in a 24-hr photoperiod at 25° C. and 20-40% relative humidity. Aphid mortality on the treated plants, relative to mortality on untreated check plants, was determined after 5 days.

[4] = test system: Southern Armyworm (Spodoptera eridania), 2nd Instar Larvae; assay: Southern armyworm (Spodoptera eridania) test, Sieva lima bean leaves dipped; type: in vivo; conditions: 96 h, 2nd instar larvae on dipped lima bean leaves, at 4 days, read-out: mortality in comparison with untreated controls (southern armyworm)
Protocol: as §1
The active compounds were formulated in 50:50 acetone:water (vol) and 100 ppm Kinetica™ surfactant.
A pair of first true leaves of Sieva lima bean was dipped into the test solution and allowed to dry. The leaves were then placed in a plastic perforated zip enclosure bag and ten 2nd instar larvae were added. At 4 days, observations were made of mortality and reduced feeding.

[5] = test system: Diamond Back Moth (plutella xylostella); assay: Diamond back moth (plutella xylostella) test, Chinese cabbage leaves dipped; type: in vivo; conditions: 3rd instar larvae on dipped cabbage leaves, recorded 24, 72, and 120 hours after treatment, read-out: mortality in comparison with untreated controls (diamond back moth)
Protocol: as §1
The active compound is dissolved at the desired concentration in a mixture of 1:1 (vol:vol) distilled water:acteon. The test solution is prepared at the day of use.
Leaves of Chinese cabbage were dipped in test solution and air-dried. Treated cabbage leaves were placed in petri dished lined with moist filter paper and 3rd instar larvae were added. Mortality was recorded 24, 72, and 120 hours after treatment.

SMILES | mortality at 300 ppm [1] | mortality at 300 ppm [2] | mortality at 300 ppm [3] | further results
CN(C(=O)c1ccc(Cl)nc1)c1nsc2cccc(OC(F)F)c12 [compound 82] | > 89% | ≥ 89% |  | 
O=C(Nc1nsc2cccc(OC(F)F)c12)c1cc(Br)nn1-c1ncccc1Cl [compound 89] |  |  | ≥ 89% | 
COCC(=O)N(C)c1nsc2cccc(OC(F)F)c12 [compound 76] | > 89% | ≥ 89% |  | 
O=C(Nc1nsc2cccc(Cl)c12)c1cc(C(F)(F)F)nn1-c1ncccc1Cl [compound 75] |  |  |  | mortality at 300 ppm [4]: > 89%
CN(C(=O)c1cnccc1C(F)(F)F)c1nsc2cccc(OC(F)F)c12 [compound 91] |  |  | ≥ 89% | 
Cc1cccc2snc(NC(=O)c3cc(C(F)(F)F)nn3-c3ncccc3Cl)c12 [compound 113] |  |  |  | mortality at 300 ppm [4]: > 89%; mortality at 300 ppm [5]: > 89%
CCN(C(=O)c1cc(C(F)(F)F)nn1-c1ncccc1Cl)c1nsc2cccc(OC(F)F)c12 [compound 81] | > 89% |  |  | 
CCN(C(=O)c1ccc(Cl)nc1)c1nsc2cccc(OC(F)F)c12 [compound 83] |  | ≥ 89% |  | 
O=C(Nc1nsc2cccc(Cl)c12)c1cc(Br)nn1-c1ncccc1Cl [compound 74] |  |  |  | mortality at 300 ppm [4]: > 89%
COCC(=O)N(C)c1nsc2cccc(Cl)c12 [compound 87] | > 89% | ≥ 89% | ≥ 89% | 
CCCC(=O)N(CC)c1nsc2cccc(OC(F)F)c12 [compound 118] | > 89% | ≥ 89% | ≥ 89% | 
CN(C(=O)c1cc(Br)nn1-c1ncccc1Cl)c1nsc2cccc(OC(F)F)c12 [compound 92] |  |  | ≥ 89% | 
CC(=O)N(C)c1nsc2cccc(OC(F)F)c12 [compound 25] |  | ≥ 89% |  | 
CN(C(=O)c1ccc(C(F)(F)F)nc1)c1nsc2cccc(Cl)c12 [compound 108] | > 89% |  | ≥ 89% | 
O=C(Nc1nsc2cccc(Cl)c12)c1ccc(C(F)(F)F)nc1Cl [compound 115] |  |  | ≥ 89% | 
COc1cccc2snc(N(C)C(=O)c3cnccc3C(F)(F)F)c12 [compound 105] | > 89% |  | ≥ 89% | mortality at 300 ppm [5]: > 89%
COc1cccc2snc(N=S(C)C)c12 [compound 125] |  | ≥ 89% | ≥ 89% | 
CCN(C(=O)C(F)(F)F)c1nsc2cccc(OC(F)F)c12 [Compound example 26, N-(4-Difluoromethoxy-benzo[d]isothiazol-3-yl)-N-ethyl-2,2,2-trifluoro-acetamide] |  |  |  | melting point: 176 to 177 °C
CCN(C(=O)c1cc(C(F)(F)F)nn1-c1ncccc1Cl)c1nsc2cccc(OC)c12 [compound 86] |  |  | ≥ 89% | 
CCN(C(=O)COC)c1nsc2cccc(OC(F)F)c12 [compound 77] | > 89% | ≥ 89% |  | 
COc1cccc2snc(N(C)C(=O)c3cc(Br)nn3-c3ncccc3Cl)c12 [compound 94] | > 89% |  | ≥ 89% | 
CN(C(=O)c1cnccc1C(F)(F)F)c1nsc2cccc(Cl)c12 [compound 106] | > 89% |  | ≥ 89% | 
